The source of these data is ChEMBL document CHEMBL4834444, “Discovery of novel N-1 substituted pyrazolopyrimidinones as potent, selective PDE2 inhibitors” (Bioorg Med Chem Lett, 2021).

One data set concerns the target Phosphodiesterase 7 (Homo sapiens, UniProt Q13946+Q9NP56). The experiment in a line: Inhibition of human PDE7. It is filed as protein assay.
The next data set is filed under the species Homo sapiens. The experiment in a line: Inhibition of Ion channel (unknown origin).
The target of the next data set is Cytochrome P450 3A4 (Homo sapiens, UniProt P08684). The experiment in a line: Inhibition of CYP3A4 (unknown origin). It is filed as ADME.
The nature of data set [1]: Plasma protein binding in rat assessed as unbound fraction. It is filed as ADME, cell-free.
Data set [2] can be described thus: Plasma clearance in rat. In kind it is ADME.
Data set [3] deals with High affinity cGMP-specific 3',5'-cyclic phosphodiesterase 9A (Homo sapiens, UniProt O76083). The experiment in a line: Inhibition of human PDE9.
Data set [4] concerns the target cAMP and cAMP-inhibited cGMP 3',5'-cyclic phosphodiesterase 10A (Homo sapiens, UniProt Q9Y233). The experiment in a line: Inhibition of human PDE10.
Data set [5] can be described thus: Mean residence time in rat. In kind it is ADME. The note with it: in vivo.
A further data set concerns the target Cytochrome P450 2C9 (Homo sapiens, UniProt P11712). The experiment in a line: Inhibition of CYP2C9 (unknown origin). It is filed as ADME.
Data set [6] is described as follows: Inhibition of human PDE8.
Data set [7] in a line: Kinetic solubility of compound in FaSSIF. The settings on record: read-out: Kinetic_solubility. In kind it is physicochemical.
Another data set has as its target Phosphodiesterase 6. The experiment in a line: Inhibition of human PDE6. In kind it is protein assay.
A short description of data set [8]: Half life in rat. It is filed as ADME. The note with it: in vivo.
Data set [9] can be described thus: Inhibition of human PDE3.
A short description of data set [10]: Plasma protein binding in rhesus monkey assessed as unbound fraction. In kind it is ADME, cell-free, Macaca mulatta.
Data set [11] can be described thus: Plasma protein binding in human assessed as unbound fraction. It is filed as ADME, cell-free.
Data set [12] has as its target cGMP-specific 3',5'-cyclic phosphodiesterase (Homo sapiens, UniProt O76074). The experiment in a line: Inhibition of human PDE5.
A short description of data set [13]: Kinetic solubility of compound at pH 7. In kind it is physicochemical. The note with it: buffer, read-out: Kinetic_solubility.
Another data set addresses Cytochrome P450 2D6 (Homo sapiens, UniProt P10635). The experiment in a line: Inhibition of CYP2D6 (unknown origin). In kind it is ADME.
In data set [14] the target is Dual 3',5'-cyclic-AMP and -GMP phosphodiesterase 11A (Homo sapiens, UniProt Q9HCR9). The experiment in a line: Inhibition of human PDE11.
Data set [15] concerns the target T1, PXR (nuclear receptor subfamily 1 group I member 2) (Homo sapiens, UniProt O75469).
T1 sequence (O75469 whole entry): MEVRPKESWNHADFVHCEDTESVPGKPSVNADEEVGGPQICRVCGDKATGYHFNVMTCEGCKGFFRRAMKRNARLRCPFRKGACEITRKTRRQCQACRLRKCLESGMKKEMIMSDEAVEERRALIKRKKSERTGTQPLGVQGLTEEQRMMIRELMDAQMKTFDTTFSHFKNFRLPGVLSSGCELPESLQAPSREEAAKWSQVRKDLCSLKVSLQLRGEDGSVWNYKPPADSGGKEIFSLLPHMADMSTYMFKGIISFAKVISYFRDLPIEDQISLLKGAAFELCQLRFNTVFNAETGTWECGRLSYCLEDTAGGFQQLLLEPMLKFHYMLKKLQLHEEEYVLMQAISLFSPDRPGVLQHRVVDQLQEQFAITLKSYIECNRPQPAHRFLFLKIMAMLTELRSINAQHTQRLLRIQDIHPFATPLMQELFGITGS
The experiment in a line: Inhibition of human PXR at 10 uM.

Another data set addresses Phosphodiesterase 4 (Homo sapiens, UniProt P27815+Q08499+Q07343+Q08493). The experiment in a line: Inhibition of human PDE4. It is filed as protein assay.
A short description of data set [16]: Inhibition of human PDE1.
Data set [17] in a line: Kinetic solubility of compound at pH 2. In kind it is physicochemical. The note with it: buffer, read-out: Kinetic_solubility.

SMILES strings stand for the structures. Values after ≈ are worked out from the molar mass of the structure shown.

Sequence of Dual 3',5'-cyclic-AMP and -GMP phosphodiesterase 11A (Q9HCR9 whole entry): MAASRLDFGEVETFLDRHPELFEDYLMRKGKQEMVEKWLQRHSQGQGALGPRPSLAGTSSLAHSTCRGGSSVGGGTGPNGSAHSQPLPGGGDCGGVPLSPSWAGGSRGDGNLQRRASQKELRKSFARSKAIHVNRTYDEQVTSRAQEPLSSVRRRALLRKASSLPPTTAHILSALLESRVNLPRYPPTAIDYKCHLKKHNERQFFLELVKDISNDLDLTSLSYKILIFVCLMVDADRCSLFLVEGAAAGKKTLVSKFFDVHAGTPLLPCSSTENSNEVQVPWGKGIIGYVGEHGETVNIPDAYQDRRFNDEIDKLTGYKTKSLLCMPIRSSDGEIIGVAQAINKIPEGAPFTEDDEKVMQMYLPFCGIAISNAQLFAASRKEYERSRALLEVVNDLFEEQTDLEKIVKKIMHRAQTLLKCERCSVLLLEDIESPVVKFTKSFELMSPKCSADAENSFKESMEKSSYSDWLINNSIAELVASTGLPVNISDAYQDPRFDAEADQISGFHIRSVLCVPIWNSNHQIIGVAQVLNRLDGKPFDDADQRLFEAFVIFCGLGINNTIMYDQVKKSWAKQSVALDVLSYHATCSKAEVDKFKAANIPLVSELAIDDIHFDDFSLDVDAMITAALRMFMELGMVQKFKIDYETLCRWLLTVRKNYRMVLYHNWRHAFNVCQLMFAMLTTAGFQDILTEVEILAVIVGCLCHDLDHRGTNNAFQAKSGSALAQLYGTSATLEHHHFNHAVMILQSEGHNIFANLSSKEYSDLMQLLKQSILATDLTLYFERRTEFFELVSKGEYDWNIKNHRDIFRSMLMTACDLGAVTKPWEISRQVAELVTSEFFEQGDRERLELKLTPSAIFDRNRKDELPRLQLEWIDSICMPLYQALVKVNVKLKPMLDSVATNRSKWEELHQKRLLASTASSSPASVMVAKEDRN
Sequence of High affinity cGMP-specific 3',5'-cyclic phosphodiesterase 9A (O76083 whole entry): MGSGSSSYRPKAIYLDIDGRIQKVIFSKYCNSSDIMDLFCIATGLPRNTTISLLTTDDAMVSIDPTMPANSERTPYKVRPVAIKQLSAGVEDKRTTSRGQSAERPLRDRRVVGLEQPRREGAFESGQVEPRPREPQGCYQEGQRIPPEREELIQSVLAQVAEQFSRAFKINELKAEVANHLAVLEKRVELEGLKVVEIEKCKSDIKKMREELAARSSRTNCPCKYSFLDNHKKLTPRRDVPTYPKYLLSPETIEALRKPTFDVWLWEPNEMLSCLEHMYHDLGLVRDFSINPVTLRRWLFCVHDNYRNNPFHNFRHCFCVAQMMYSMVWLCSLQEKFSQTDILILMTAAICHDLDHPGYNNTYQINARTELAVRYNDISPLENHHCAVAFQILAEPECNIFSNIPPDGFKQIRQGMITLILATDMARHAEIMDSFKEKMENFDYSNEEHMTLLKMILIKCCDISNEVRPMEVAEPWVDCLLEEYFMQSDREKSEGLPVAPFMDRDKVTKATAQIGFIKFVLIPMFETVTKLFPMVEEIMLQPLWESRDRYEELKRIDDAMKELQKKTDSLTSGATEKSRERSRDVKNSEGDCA
Sequence of Cytochrome P450 3A4 (P08684 whole entry): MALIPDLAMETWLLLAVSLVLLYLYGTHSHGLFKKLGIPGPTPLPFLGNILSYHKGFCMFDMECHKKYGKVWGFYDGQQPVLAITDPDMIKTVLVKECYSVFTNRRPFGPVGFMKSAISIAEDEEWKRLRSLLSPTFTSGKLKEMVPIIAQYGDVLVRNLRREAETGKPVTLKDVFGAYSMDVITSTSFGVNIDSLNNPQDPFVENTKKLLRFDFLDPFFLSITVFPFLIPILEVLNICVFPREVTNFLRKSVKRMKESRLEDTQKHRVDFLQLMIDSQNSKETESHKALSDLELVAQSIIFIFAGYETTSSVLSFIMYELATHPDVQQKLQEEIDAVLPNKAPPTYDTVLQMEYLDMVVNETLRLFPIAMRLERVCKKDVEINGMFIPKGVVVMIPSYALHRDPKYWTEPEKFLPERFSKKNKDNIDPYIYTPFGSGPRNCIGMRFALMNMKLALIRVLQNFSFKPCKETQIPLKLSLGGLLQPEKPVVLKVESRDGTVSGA
Sequence of Cytochrome P450 2D6 (P10635 whole entry): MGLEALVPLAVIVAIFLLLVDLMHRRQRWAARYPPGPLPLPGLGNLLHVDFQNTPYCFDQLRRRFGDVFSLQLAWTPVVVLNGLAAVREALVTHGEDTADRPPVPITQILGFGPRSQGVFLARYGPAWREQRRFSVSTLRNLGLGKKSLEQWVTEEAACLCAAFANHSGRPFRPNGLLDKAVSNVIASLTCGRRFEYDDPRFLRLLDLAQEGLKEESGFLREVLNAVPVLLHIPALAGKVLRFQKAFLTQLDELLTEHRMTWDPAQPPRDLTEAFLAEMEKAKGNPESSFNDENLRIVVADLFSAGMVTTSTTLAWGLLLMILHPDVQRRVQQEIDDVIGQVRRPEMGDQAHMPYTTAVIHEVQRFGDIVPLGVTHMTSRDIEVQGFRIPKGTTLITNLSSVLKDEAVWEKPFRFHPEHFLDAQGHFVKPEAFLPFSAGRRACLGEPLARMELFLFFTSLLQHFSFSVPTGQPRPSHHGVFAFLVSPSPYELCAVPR
Sequence of cAMP and cAMP-inhibited cGMP 3',5'-cyclic phosphodiesterase 10A (Q9Y233 whole entry): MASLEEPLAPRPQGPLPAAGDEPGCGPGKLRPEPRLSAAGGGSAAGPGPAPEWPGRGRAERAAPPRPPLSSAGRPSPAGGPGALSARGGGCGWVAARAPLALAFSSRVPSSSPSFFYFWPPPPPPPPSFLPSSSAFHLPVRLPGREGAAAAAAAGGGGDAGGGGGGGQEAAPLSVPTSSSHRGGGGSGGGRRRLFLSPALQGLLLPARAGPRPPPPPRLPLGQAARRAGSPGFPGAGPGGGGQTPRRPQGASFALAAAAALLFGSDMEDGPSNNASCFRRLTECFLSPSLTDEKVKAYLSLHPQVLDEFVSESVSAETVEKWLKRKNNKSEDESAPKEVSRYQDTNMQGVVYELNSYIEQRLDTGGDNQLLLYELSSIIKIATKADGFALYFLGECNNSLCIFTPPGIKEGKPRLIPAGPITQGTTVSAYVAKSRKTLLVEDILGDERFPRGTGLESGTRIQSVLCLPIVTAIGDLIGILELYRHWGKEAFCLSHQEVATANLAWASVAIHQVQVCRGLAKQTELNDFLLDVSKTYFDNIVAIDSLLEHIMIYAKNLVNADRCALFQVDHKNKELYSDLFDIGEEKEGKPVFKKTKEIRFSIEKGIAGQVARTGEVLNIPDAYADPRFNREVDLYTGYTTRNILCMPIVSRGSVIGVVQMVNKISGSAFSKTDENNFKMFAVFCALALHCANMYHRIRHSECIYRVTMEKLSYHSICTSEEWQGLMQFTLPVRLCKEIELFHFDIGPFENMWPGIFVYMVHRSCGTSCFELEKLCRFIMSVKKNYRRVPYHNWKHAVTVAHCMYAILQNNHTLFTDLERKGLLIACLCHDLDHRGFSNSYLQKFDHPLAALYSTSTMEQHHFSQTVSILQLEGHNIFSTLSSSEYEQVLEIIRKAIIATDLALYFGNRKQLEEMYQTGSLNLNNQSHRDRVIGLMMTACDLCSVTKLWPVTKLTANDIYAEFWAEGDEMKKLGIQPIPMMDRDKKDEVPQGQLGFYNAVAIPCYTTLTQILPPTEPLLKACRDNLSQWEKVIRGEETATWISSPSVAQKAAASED
Sequence of Cytochrome P450 2C9 (P11712 whole entry): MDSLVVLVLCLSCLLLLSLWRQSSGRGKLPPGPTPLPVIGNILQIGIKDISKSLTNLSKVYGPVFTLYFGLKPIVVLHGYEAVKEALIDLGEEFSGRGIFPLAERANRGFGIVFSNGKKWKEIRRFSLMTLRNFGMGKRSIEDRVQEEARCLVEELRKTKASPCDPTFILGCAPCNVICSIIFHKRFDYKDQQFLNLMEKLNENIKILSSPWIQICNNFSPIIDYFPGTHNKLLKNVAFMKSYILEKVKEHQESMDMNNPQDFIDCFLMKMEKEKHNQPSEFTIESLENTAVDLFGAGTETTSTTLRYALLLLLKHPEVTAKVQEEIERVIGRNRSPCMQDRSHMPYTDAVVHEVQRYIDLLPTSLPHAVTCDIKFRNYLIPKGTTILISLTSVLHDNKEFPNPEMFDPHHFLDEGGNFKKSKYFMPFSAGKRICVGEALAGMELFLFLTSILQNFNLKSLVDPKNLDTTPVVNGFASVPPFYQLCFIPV

With `Cc1nc2c([C@H](C)c3ccc(C(F)(F)F)c(F)c3)nn(CCO)c2c(=O)[nH]1`, the half-maximal inhibitory concentration (IC50) against Phosphodiesterase 7 is more than 75 µM; in data set [3], more than 50 µM; in data set [4], 18 µM; in [6] it was more than 50 µM; against Phosphodiesterase 6, 27 µM; in [9], 1.8 µM. The IC50 is 23 µM in data set [12], 6.2 µM in data set [14], 3.5 µM against Phosphodiesterase 4 and more than 60 µM in data set [16]. Moreover, the INH in the data set listed under Homo sapiens is 9.6 µM; at Cytochrome P450 3A4, 44 µM; at Cytochrome P450 2C9 it was more than 50 µM; on Cytochrome P450 2D6, more than 50 µM. Moreover, the values for the unbound share (fraction unbound) in [1], in [10] and in data set [11] were 0.049, 0.035 and 0.03, respectively. In data set [2], this compound came in with a clearance of 24 mL/min/kg. Besides, the mean residence time (MRT) in [5] was 2.5 h. Besides, the solubility kinetic in data set [7] was found to be 148 µM (≈ 56.9 µg/mL); in data set [13], 115 µM (≈ 44.2 µg/mL); in data set [17], 117 µM (≈ 45 µg/mL). In addition, in [8], the half-life is 3.1 h. For the same compound, in data set [15], testing at 10 µM gave an inhibition of 16%.

For `Cc1nc2c([C@H](C)c3ccc(C(C)(C)C)cc3)nn(CCF)c2c(=O)[nH]1`, the IC50 against Phosphodiesterase 7 is more than 75 µM; in data set [3], more than 50 µM; in data set [4] it was 5.8 µM; in data set [6] it was more than 50 µM; against Phosphodiesterase 6, 11 µM; in [9], 5.7 µM. For the same compound, the half-inhibitory concentration (IC50) is 21 µM in data set [12], 0.6 µM in data set [14], 3.3 µM against Phosphodiesterase 4 and more than 60 µM in data set [16]. For the same compound, the INH is 17 µM in the data set filed under Homo sapiens, more than 50 µM on Cytochrome P450 3A4, more than 50 µM at Cytochrome P450 2C9 and more than 50 µM at Cytochrome P450 2D6. Besides, the results for the fraction unbound in data set [1], in data set [10] and in data set [11] were 0.014, 0.016 and 0.009, respectively. The clearance in data set [2] came out at 49 mL/min/kg. The same compound displayed an MRT in [5] of 0.8 h. The figures for the solubility kinetic in data set [7], in [13] and in data set [17] were 177 µM (≈ 63.1 µg/mL), 20 µM (≈ 7.13 µg/mL) and 60 µM (≈ 21.4 µg/mL), respectively. Besides, the half-life in data set [8] is 1.4 h. In data set [15], this compound showed an inhibition at 10 µM of 45%.
